Measured values from patent US20230183193A1, “4-DIFLUOROMETHYL BENZOYL AMIDES WITH HERBICIDAL ACTION” (BAYER CROPSCIENCE AKTIENGESELLSCHAFT, priority 2017, published 2023).

Assays:
Assay type in all cases: in vivo
Abutilon theophrasti [1] = test: Pre-emergence herbicidal action, ABUTH; details: dosage 320 g/ha, scored visually after 3 weeks vs untreated controls
Summary of the method: (§1)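 Percent herbicidal activity rated by eye 3 weeks after pre-emergence soil-surface application, compared with untreated pots. Seeds sat under sandy loam; sprays carried 0.2% wetting agent.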

Alopecurus myosuroides [2] = test: Pre-emergence herbicidal action, ALOMY; details: dosage 320 g/ha, scored visually after 3 weeks vs untreated controls
Summary of the method: as §1

Amaranthus retroflexus [3] = test: Pre-emergence herbicidal action, AMARE; details: dosage 320 g/ha, scored visually after 3 weeks vs untreated controls
Summary of the method: as §1

Avena fatua [4] = test: Pre-emergence herbicidal action, AVEFA; details: dosage 320 g/ha, scored visually after 3 weeks vs untreated controls
Summary of the method: as §1

Cyperus serotinus = test: Pre-emergence herbicidal action, CYPES; details: dosage 320 g/ha, scored visually after 3 weeks vs untreated controls
Summary of the method: as §1

Matricaria inodora = test: Pre-emergence herbicidal action, MATIN; details: dosage 320 g/ha, scored visually after 3 weeks vs untreated controls
Summary of the method: as §1

Setaria viridis [5] = test: Pre-emergence herbicidal action, SETVI; details: dosage 320 g/ha, scored visually after 3 weeks vs untreated controls
Summary of the method: as §1

Stellaria media [6] = test: Pre-emergence herbicidal action, STEME; details: dosage 320 g/ha, scored visually after 3 weeks vs untreated controls
Summary of the method: as §1

Viola tricolor [7] = test: Pre-emergence herbicidal action, VIOTR; details: dosage 320 g/ha, scored visually after 3 weeks vs untreated controls
Summary of the method: as §1

Abutilon theophrasti [8] = test: Post-emergence herbicidal action, ABUTH; details: 80 g/ha, Table D
Summary of the method: (§2)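 Greenhouse-grown plants were sprayed at the one-leaf stage, 2–3 weeks after sowing. Damage was scored visually after about 3 weeks against untreated controls, as % action (100% = dead, 0% = like control).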

Alopecurus myosuroides [9] = test: Post-emergence herbicidal action, ALOMY; details: 80 g/ha, Table C
Summary of the method: as §2

Amaranthus retroflexus [10] = test: Post-emergence herbicidal action, AMARE; details: 80 g/ha, Table D
Summary of the method: as §2

Avena fatua [11] = test: Post-emergence herbicidal action, AVEFA; details: 80 g/ha, Table C
Summary of the method: as §2

Pharbitis purpureum = test: Post-emergence herbicidal action, PHBPU; details: 80 g/ha, Table D
Summary of the method: as §2

Setaria viridis [12] = test: Post-emergence herbicidal action, SETVI; details: 80 g/ha, Table C
Summary of the method: as §2

Stellaria media [13] = test: Post-emergence herbicidal action, STEME; details: 80 g/ha, Table D
Summary of the method: as §2

Viola tricolor [14] = test: Post-emergence herbicidal action, VIOTR; details: 80 g/ha, Table D
Summary of the method: as §2

ECHCG = test: Post-emergence herbicidal action, ECHCG; details: 80 g/ha, Table C
Summary of the method: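 Weed and crop plants grown in sandy loam in the greenhouse, treated at the one-leaf stage 2–3 weeks after sowing. Damage scored visually after about 3 weeks vs untreated controls (0% = control, 100% = dead).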

Structure (SMILES)	herbicidal activity ABUTH (Abutilon theophrasti [1]) [%]	herbicidal activity ALOMY (Alopecurus myosuroides [2]) [%]	herbicidal activity AMARE (Amaranthus retroflexus [3]) [%]	herbicidal activity AVEFA (Avena fatua [4]) [%]	herbicidal activity CYPES (Cyperus serotinus) [%]	herbicidal activity MATIN (Matricaria inodora) [%]	herbicidal activity SETVI (Setaria viridis [5]) [%]	Herbicidal activity STEME (Stellaria media [6]) [%]	herbicidal activity VIOTR (Viola tricolor [7]) [%]	herbicidal activity ABUTH (Abutilon theophrasti [8]) [%]	herbicidal activity ALOMY (Alopecurus myosuroides [9]) [%]	herbicidal activity AMARE (Amaranthus retroflexus [10]) [%]	herbicidal activity AVEFA (Avena fatua [11]) [%]	Herbicidal activity PHBPU (Pharbitis purpureum) [%]	herbicidal activity SETVI (Setaria viridis [12]) [%]	Herbicidal activity STEME (Stellaria media [13]) [%]	herbicidal activity VIOTR (Viola tricolor [14]) [%]	Herbicidal activity ECHCG (ECHCG) [%]
CCc1c(C(=O)Nc2nnnn2C)ccc(C(F)F)c1[S+](C)[O-] (stereo not drawn) [Example 1-14]	100	100	100	100	100	100	100	100	100	100	90	90	90	90	100	100	90	100
CCc1c(C(=O)Nc2nnnn2C)ccc(C(F)F)c1S(C)(=O)=O [Example 1-15]	100	100	100	100	100	100	100	100	100	90	90	100	100	90	80	100	100	90
CCc1c(C(=O)Nc2nnnn2C)ccc(C(F)F)c1[S+]([O-])CC (stereo not drawn) [Example 1-17]	100	100	100	100	100	100	100	100	100	100	90	100	90	90	90	100	100	90
CCc1c(C(=O)Nc2nnnn2C)ccc(C(F)F)c1S(=O)(=O)CC [Example 1-18]	100	100	100	100	100	100	100	100	100	100	90	100	100	90	100	100	100	90
CSc1c(C(F)F)ccc(C(=O)Nc2nnnn2C)c1C1CC1 [Example 1-25]	100	100	100	100	100	100	100	100	100	100	100	100	100	100	100	100	100	100
Cn1nnnc1NC(=O)c1ccc(C(F)F)c([S+](C)[O-])c1C1CC1 (stereo not drawn) [Example 1-26]	100	100	100	100	100	100	100	100	100	100	90	100	100	90	100	100	100	100
Cn1nnnc1NC(=O)c1ccc(C(F)F)c(S(C)(=O)=O)c1C1CC1 [Example 1-27]	100	100	100	100	100	100	100	100	100	100	100	100	100	90	100	100	100	100
